# Measurements as given in patent US7855228B2, “Antibiotics targeting MreB” (The Board of Trustees of the Leland Stamford Junior …, priority 2005, dated 2010).
# Entries after “also recorded” stand apart in the source; their conditions may differ. Where two headings read alike, the source gives them in different places.
# Legend:
# [1] = test system: S. aureus subsp. aureus NBRC15035; experiment: Determination of minimum inhibitory concentration (MIC); assay type: cell-based, Staphylococcus aureus; conditions: Staphylococcus aureus, read-out: MIC S. aureus
# Method in brief: (§1)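 Two-fold serial agar dilution on L agar and also on Mueller Hinton agar (pH 7.3); 10 µl of stationary-phase culture diluted in 0.85% NaCl to 10^6 cells/ml spotted per plate. MIC taken as lowest concentration inhibiting growth.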
# [2] = test system: Caulobacter DNA replication; experiment: Analysis of DNA replication (32P-labeled dGTP incorporation, DNA-content FACS); assay type: cell-based, Caulobacter crescentus
# Description: We first examined the incorporation of radiolabeled dGTP into DNA, which linearly correlates with the rate of DNA replication. […] To assess the effect of A22 on DNA replication during the cell cycle, the radiolabeled nucleotide incorporation assay was repeated using synchronized cultures at different points in the cell cycle. Untreated cells display a dramatic rise in radioactivity levels characteristic of DNA replication initiation at the swarmer-to-stalked cell transition. This rise in radioactivity levels was also observed in A22-treated cells (FIG. 6A).
# Finally, we examined the DNA content of A22-treated cells by FACS.
# Analysis of DNA Replication. DNA replication was assessed by incorporation of 32P-labeled dGTP) or chromomycin-stained DNA-content FACS analysis as described previously.
# [3] = test system: Caulobacter chromosomal loci (origin, origin-distal loci); experiment: Chromosome segregation of FROS-labeled loci; assay type: cell-based, Caulobacter crescentus
# Description: A22 Treatment Blocks Chromosome Segregation. Having established that A22 targets MreB and rapidly disrupts its localization, we used A22 to assess the acute role of MreB in chromosome segregation. To this end we took advantage of strains previously generated in our group that use the fluorescent repressor-operator system (FROS) to simultaneously label two specific chromosomal loci in the same living cell. This system uses fusions of two DNA binding proteins, the lac repressor (LacI) and the Tet repressor (tetR), to CFP and YFP, respectively. Two arrays, each containing multiple tandem repeats of either the LacI or TetR binding sites, are integrated into different chromosomal loci. Each fusion protein clusters at its respective array, causing the cellular address of that array to fluoresce in a detectable fashion.
# Synchronized swarmer cells with lac arrays at the origin locus and tet arrays at the midcell-positioned CC2943 locus (FIG. 5A) were incubated with 10 μg/ml A22. After varying periods of time in the presence of A22, the cellular positions of the origin and CC2943 were examined by fluorescence microscopy. The cultures continued to increase in cell mass, as measured by an increase in optical density, but cell division was blocked. […] This effect was reversible, since upon washing out the A22 drug, the origins were rapidly and normally segregated.
# Treatment of swarmer cells with A22 before the origins have segregated blocks the movement of chromosomal loci. […]
# Though origin-distal loci can separate in the presence of A22, MreB could still partially contribute to their cellular positioning and rate of movement across the cell. Technical considerations prevent the quantitative analysis of locus movement in doubly labeled cells. Thus, to quantitatively assess the role of MreB in origin-distal locus segregation, we examined two singly labeled strains, one with CC0786 marked at 860 kb to the right of the origin, and one with CC3192 marked at 576 kb to the left of the origin. […] The timelapses were analyzed using automated software that provides the absolute position of each locus in each cell. […]
# Microscopy and Timelapse Imaging. […] The rates of origin-distal locus segregation were determined by inducing PxyI:lacI:cfp expression with 0.03% xylose for 75 min, isolating swarmer cells, and growing the swarmer cells in M2G liquid medium for 50 min. After 50 min, 10 μg/ml of A22 was added to these liquid cultures, they were mounted onto 1% M2G agarose pads containing 10 μg/ml A22, and a phase and CFP fluorescence image was captured every 2 min for 60 min. The images were analyzed by previously described software to determine the average position and rate of movement of the observed foci.
# P. putida = experiment: Induction of spherical cells; assay type: cell-based
# Description: (§2) A22 was effective against Gram-negative rod-shaped bacteria.
# S. typhimurium = experiment: Induction of spherical cells; assay type: cell-based
# Description: as §2
# B. subtilis = experiment: Induction of spherical cells; assay type: cell-based
# Description: as §2
# P. putida NBRC14164 = experiment: Determination of minimum inhibitory concentration (MIC); assay type: cell-based, Pseudomonas putida; conditions: Pseudomonas putida, read-out: MIC P. putida
# Method in brief: as §1
structure (smiles),measurement,setting,value
"N=C(N)SCc1ccc(Cl)c(Cl)c1 [Compound 1, S-(3,4-dichlorobenzyl)isothiourea]",MIC,"[1]; NBRC15035, Example 2, methods as in Example 1",> 100 µg/mL
same,MIC,"[1]; NBRC15035, Table 1, NBRC15035",> 100 µg/mL
same,"Incorporation of radiolabeled dGTP, asynchronous cultures",[2],does not interfere with bulk DNA synthesis
same,"Incorporation of radiolabeled dGTP, synchronized cultures (replication initiation)",[2]; 10 μg/ml A22 or 5 mg/ml HU,slightly delayed replication initiation
same,DNA content by FACS,"[2]; 10 μg/ml, 8 hr",predominantly contained cells with two chromosomes
same,Origin segregation in cells with T158A A22-resistant mreB allele,[3]; 10 μg/ml,successfully segregated
same,Locus position and rate of segregation of CC0786 and CC3192,"[3]; 10 μg/ml added after 50 min, timelapse 60 min",unaffected
same,Foci of origin and CC2943 loci in swarmer cells,"[3]; 10 μg/ml added to synchronized swarmer cells, 30-180 min",only one focus for each locus
same,"Separation of origin-distal loci (CC2943, CC3300, CC3656, CC0091)","[3]; A22 added after origin segregation (30 min), listed as A22",proceeded to replicate and separate their CC2943 locus into two foci; also recorded: duplicated and separated in the presence of A22
same,Induction of spherical cells in P. putida,P. putida,induced spherical cells
same,Induction of spherical cells in S. typhimurium,S. typhimurium,induced spherical cells
same,Induction of spherical cells in B. subtilis,B. subtilis,did not
same,MIC,"P. putida NBRC14164; NBRC14164, Example 2, methods as in Example 1",100 µg/mL
same,MIC,"P. putida NBRC14164; NBRC14164, Table 1, NBRC14164",100 µg/mL
